Laboratory results as given in PMC9546217, “Exploring novel nitrofuranyl sulfonohydrazides as anti‐Leishmania and anti‐cancer agents: Synthesis, in vitro efficacy and hit identification” (Chemical Biology & Drug Design, 2022).
Like-named read-outs stand apart in the source and are kept apart here.

What was measured:
[1] = system: L. donovani strain 1S promastigotes; test: Antipromastigote assay (resazurin); assay type: cell-based; details: L. donovani 1S, read-out: 1S IC50 ± SD, Promastigote
Protocol: (§1) The antipromastigote activity of synthesized compounds was evaluated as described previously by Mangwegape et al. ([2021]) using three strains of L. donovani (1S (MHOM/SD/62/1S) and 9515 (MHOM/IN/95/9515)) and L. major (IR‐173 [MHOM/IR/−173]). The assay method is available in the Supinfo S1.
(§2) The antipromastigote activity of synthesized compounds was evaluated using a modified, resazurin-based method of Kulshrestha et al. ^2 and Siqueira-Neto et al. ^3 and on three Leishmania strains. Leishmania donovani (strains 1S (MHOM/SD/62/1S) and 9515 (MHOM/IN/95/9515)) and L. major (strain IR-173 (MHOM/IR/-173)) promastigotes were cultured in M199 with Hank's salts and 0.68 mM L-glutamine (Sigma Aldrich) supplemented with 50 U/mL Penicillin/Streptomycin solution (Lonza), 4.2 mM sodium bicarbonate, 25 mM Hepes, 10% fetal bovine serum, 0.25% hemin, 0.1% biotin, and 10 mM adenine (Sigma Aldrich) and the pH adjusted to 7.3 – 7.4. The promastigotes were maintained at 25 °C.
(§3) Amphothericin B (10 μM) served as the standard drug and growth medium without parasites served as the blank. The plates were incubated for 48 hours at 25 °C in humidified atmosphere. After incubation, 50 μL of resazurin solution (0.01% in PBS) was added to each well and the plates were further incubated at 25 °C in the dark for 24 hours. Absorbance was measured at 570 nm and 600 nm using the Thermofisher Scientific GO Multiscan plate reader. Data analysis was performed for each biological replicate using SkanIt 4.0 Research Edition software. Background absorbance of resazurin (600 nm) was subtracted from the absorbance values of resorufin (570 nm). The mean absorbance calculated and the percentage growth inhibition and cell viability were determined by the following equations: […]
(§4) The IC50 and Z-score were determined for each compound’s three biological replicates using the cell viability % values and GraphPad Prism 5. The mean IC50 of the biological replicates with standard deviation (SD) served as the final IC50 of each compound.

[2] = system: L. donovani strain 9515 promastigotes; test: Antipromastigote assay (resazurin); assay type: cell-based; details: L. donovani 9515, read-out: 9515 IC50 ± SD, Promastigote
Protocol: as §1, §2, §3, §4

[3] = system: L. major strain IR‐173 promastigotes; test: Antipromastigote assay (resazurin); assay type: cell-based; details: L. major IR‐173, read-out: Antileishmanial activity, IC50 ± SD, Promastigote
Protocol: as §1, §2, §3, §4

[4] = system: L. donovani strain 1S amastigotes; test: Anti-amastigote assay (intramacrophage, THP-1 host, resazurin); assay type: cell-based; details: for IC50: L. donovani 1S, read-out: 1S IC50 ± SD, Amastigote; for Selectivity index SI4: L. donovani 1S: IC50 THP‐1/IC50 amastigote; for Selectivity index SI3: L. donovani 1S: IC50 Vero/IC50 amastigote; for Specificity index SpI2: L. donovani 1S: IC50 promastigote/IC50 amastigote
Protocol: (§5) The activities of synthesized compounds against the intramacrophage parasites of the three Leishmania strains were evaluated using a modified, resazurin‐based method (Jain et al., [2012]; Njanpa et al., [2021]). Suspension cultures of human acute monocytic leukemia (THP‐1) cells were maintained in RPMI‐1640 medium (Sigma Aldrich) supplemented with 10% FBS and 1% penicillin–streptomycin, at 37°C and 5% CO2 in a humidified atmosphere. Duplicate 96‐well plates (for respective anti‐amastigote and cytotoxicity assays) were seeded with 200 μl of a 2.5 × 10^5 cells/ml suspension treated with 25 ng/ml phorbol 12‐myristate 13‐acetate (PMA), followed by 48‐h incubation to promote differentiation into adherent macrophages.
(§6) For the anti‐amastigote assay, differentiated plates were carefully washed with PBS, followed by the addition of 200 μl of stationary phase promastigotes in RPMI 1640 medium with 2% FBS. An MOI of 30:1 was used for all three Leishmania strains. The parasite‐treated plates were incubated for 24 h at 32°C (L. major) or 37°C (L. donovani) and 5% CO2 to promote infection of the macrophages. […] Blanks were represented by growth medium without cells, as well as parasite‐free THP‐1 cells. The treated plates were incubated for 72 h.
(§7) After incubation, the plates were gently washed three times with PBS to remove any remaining extracellular parasites. The wells were then treated with 20 μl of 0.05% sodium dodecyl sulfate in PBS for 30 s to lyse the host macrophages. Lysis was terminated by adding 180 μl promastigote growth medium with 10% FBS. To initiate the resazurin assay, 10 μl of resazurin solution (0.025% in PBS) was added to all wells and the plates were incubated for 24 h at 32°C (L. major) or 37°C (L. donovani) and 5% CO2. Absorbance measurements, calculations, and IC50 determinations were performed as described for the antipromastigote assay (Supinfo S1).

[5] = system: L. donovani strain 9515 amastigotes; test: as above; assay type: cell-based; details: for IC50: L. donovani 9515, read-out: 9515 IC50 ± SD, Amastigote; for Selectivity index SI6: L. donovani 9515: IC50 THP‐1/IC50 amastigote; for Selectivity index SI5: L. donovani 9515: IC50 Vero/IC50 amastigote; for Specificity index SpI3: L. donovani 9515: IC50 promastigote/IC50 amastigote
Protocol: as §5, §6, §7

[6] = system: L. major strain IR‐173 amastigotes; test: as above; assay type: cell-based; details: for IC50: read-out: Antileishmanial activity, IC50 ± SD, Amastigote; for Specificity index SpI1: L. major IR‐173: IC50 promastigote/IC50 amastigote; for Selectivity index SI2: L. major: IC50 THP‐1/IC50 amastigote
Protocol: as §5, §6, §7

[7] = Cytotoxicity on differentiated host THP-1 macrophages, resazurin assay; assay type: cell-based, human; details: human, PMA-differentiated THP-1 macrophages, read-out: Cytotoxicity, IC50 ± SD, THP‐1
Protocol: Duplicate 96‐well plates (for respective anti‐amastigote and cytotoxicity assays) were seeded with 200 μl of a 2.5 × 10^5 cells/ml suspension treated with 25 ng/ml phorbol 12‐myristate 13‐acetate (PMA), followed by 48‐h incubation to promote differentiation into adherent macrophages.
Cytotoxicity of the compounds on the differentiated host THP-1 cells were also evaluated. As mentioned, duplicate plates of differentiated THP-1 cells were prepared during the anti-amastigote assay. These plates were incubated for 72 hours to differentiate, instead of replacing the growth medium with parasite-containing medium after 48 hours. […] Blanks were growth medium without cells. The treated plates were incubated for 72 hours, followed by the addition of 50 μL of resazurin solution (0.01% in PBS) to each well and 24-hour incubation.

[8] = Leishmania major, THP-1, L. major IR‐173

| Compound | IC50 ([1]; Leishmania donovani) | IC50 ([2]; Leishmania donovani) | IC50 ([3]; Leishmania major) | IC50 ([4]; Leishmania donovani, THP-1) | IC50 ([5]; Leishmania donovani, THP-1) | IC50 [6, 8] | IC50 at 72 h [7] | Selectivity index SI4 [4] | Selectivity index SI3 [4] | Specificity index SpI2 [4] | Selectivity index SI6 [5] | Selectivity index SI5 [5] | Specificity index SpI3 [5] | other results |
| --- | --- | --- | --- | --- | --- | --- | --- | --- | --- | --- | --- | --- | --- | --- |
| Cc1ccc(S(=O)(=O)N/N=C/c2ccc([N+](=O)[O-])o2)cc1 [2c, (E)-4-Methyl-N'-[(5-nitrofuran-2-yl)methylene]benzenesulfonohydrazide] | > 10 µM | > 10 µM | > 10 µM | > 10 µM | > 10 µM | > 10 µM |  |  |  |  |  |  |  |  |
| CC(C)c1ccc(S(=O)(=O)N/N=C/c2ccc([N+](=O)[O-])o2)cc1 [2d, (E)-4-Isopropyl-N'-[(5-nitrofuran-2-yl)methylene]benzenesulfonohydrazide] | 5 ± 1.32 µM | 3.62 ± 0.65 µM | 4.71 ± 0.33 µM | > 10 µM | > 10 µM | < 10 µM | 93.1 ± 3.51 µM |  |  |  |  |  |  | Specificity index SpI1 [6]: 0.57; IC50 ([6]; L. major IR‐173): 8.3 ± 0.78 µM; Selectivity index SI2 [6]: 11 |
| CC(C)(C)c1ccc(S(=O)(=O)N/N=C/c2ccc([N+](=O)[O-])o2)cc1 [2f, (E)-4-(tert-Butyl)-N'-[(5-nitrofuran-2-yl)methylene]benzenesulfonohydrazide] | 5.29 ± 0.69 µM | 3.5 ± 0.58 µM | 6.93 ± 0.83 µM | 6.36 µM | 9.62 ± 1.15 µM | > 10 µM | 84.6 ± 2.16 µM | 13 | 5 | 0.83 | 9 | 3 | 0.36 |  |
| O=[N+]([O-])c1ccc(/C=N/NS(=O)(=O)c2ccc(-c3ccccc3)cc2)o1 [2h, (E)-N'-[(5-Nitrofuran-2-yl)methylene]-(1,1'-biphenyl)-4-sulfonohydrazide] | 1.45 ± 0.16 µM | 1.53 ± 0.14 µM | 2.49 ± 0.51 µM | 2.94 ± 0.3 µM | 6.29 ± 0.62 µM | > 10 µM | 50.4 ± 2.26 µM | 17 | 6 | 0.49 | 8 | 3 | 0.24 |  |
| O=[N+]([O-])c1ccc(/C=N/NS(=O)(=O)c2cccc3c2OCCO3)o1 [2l, (E)-N'-[(5-Nitrofuran-2-yl)methylene]-2,3-dihydrobenzo[b][1,4]dioxine-5-sulfonohydrazide] | 9.24 ± 1.32 µM | 7.25 ± 0.11 µM | 8.1 ± 0.03 µM | 6.36 µM | 7.85 ± 0.21 µM | > 10 µM | > 100 µM | > 16 | 6 | 1.45 | > 13 | 5 | 0.92 |  |
| O=Cc1ccc([N+](=O)[O-])o1 [NFA, 5‐nitro‐2‐furaldehyde, reference compound] | 6.39 ± 0.26 µM | > 10 µM | 7.28 ± 0.1 µM | > 10 µM | 8.56 ± 0.65 µM | 8.35 ± 0.89 µM |  |  |  |  | 9 | 3 |  | Specificity index SpI1 [6]: 0.87; Selectivity index SI2 [6]: 10; Selectivity index SI1 ([6]; L. major: IC50 Vero/IC50 amastigote): 3 |
| O=C1CN(/N=C/c2ccc([N+](=O)[O-])o2)C(=O)N1 [NFT, nitrofurantoin, reference compound] | > 10 µM | > 10 µM | > 10 µM | > 10 µM | 8.56 ± 1.95 µM | > 10 µM | > 100 µM |  |  |  |  |  |  |  |
| O=C(N/N=C/c1ccc([N+](=O)[O-])o1)c1ccc(O)cc1 [NFX, Nifuroxazide, reference compound] | > 10 µM | > 10 µM | > 10 µM | > 10 µM |  | > 10 µM | > 100 µM |  |  |  | > 14 | > 14 |  |  |
| (E)-2,4,6-Trimethyl-N'-[(5-nitrofuran-2-yl)methylene]benzenesulfonohydrazide [2e] |  |  |  |  |  |  |  |  |  |  | > 16 | 6 | 0.65 | IC50 [1]: 3.04 ± 0.04 µM; IC50 [2]: 3.97 ± 1.08 µM; IC50 [3]: 7.09 ± 0.74 µM; IC50 [4]: > 10 µM; IC50 [5]: 6.14 ± 0.83 µM; IC50 ([6]; L. major IR‐173): > 10 µM |
